# Measurements published in patent US20160115196A1, “SELF-ASSEMBLED MICRO-AND NANOSTRUCTURES” (NORTHWESTERN UNIVERSITY, priority 2013, published 2016).
# Where no end group is shown, it is not given here. [ ]: non-standard residue; d: D form. Dopa = N[C@@H](Cc1ccc(O)c(O)c1)C(=O)O
# Tests used:
# [1] = AFM force mapping adhesion measurements with colloidal probe (Embodiment 2); format: physicochemical; conditions: for mean adhesion force from force map histogram: tip velocity 1000 nm/s, compressive force 20 nN
# Procedure: In an alternative embodiment, AFM analysis was performed using an Asylum MFP-1D AFM instrument (Asylum Research, Santa Barbara, Calif., USA).
# The AFM measurment was performed by emploting force mapping while simultaneously providing nanoscale topographical and mechanical information about the hydrogel. Force mapping involves generating individual force curves at discrete points on a material, which are then used to calculate stiffness and height values.
# (§1) After overnight incubation, 10 μL of each sample were deposited on a glass slide and dried at room temperature. Force measurements of the samples were conducted using a SiO2 colloidal probe (tip velocity 1000 nm/s, compressive force 20 nN). To investigate the glass surface area morphology after peeling, 30 μL of freshly prepared Fmoc-DOPA-DOPA-Lys solutions (12.5 mg/mL, prepared in DMSO or ethanol as described above) were deposited between two microscope glass slides. This construct was incubated overnight at room temperature under 100 mg weight Finally, the upper glass slide was peeled off and the contact area of either slide was imaged using an Ultrasharp AFM probe (NSC21/Ti-Pt, MikroMasch) operated in tapping mode.
# [2] = Macroscopic adhesion of two glass slides and peeling; format: physicochemical; conditions: prepared in ethanol or DMSO
# Procedure: as §1
# [3] = Silver reduction / silver deposition assay; conditions: silver nitrate added to pre-formed assemblies; TEM, HR-SEM or E-SEM
# Procedure: Silver reduction assay was performed with pre-prepared Fmoc-DOPA-DOPA hydrogels at a concentration of 5 mg/mL (8.35 mM). 50 μL of 13.2 mM silver nitrate were added to 500 μL hydrogel aliquots by gentle pipetting, resulting in 1.2 mM final concentration of silver nitrate. This solution was incubated at room temperature for several days. At different time points, 10 μL aliquots were taken for TEM analysis and negative staining was not applied. To examine silver reduction using UV-vis spectroscopy, silver nitrate was added to a 5 mg/mL hydrogel pre-prepared as described above and 150 μL aliquots of Fmoc-DOPA-DOPA hydrogel with or without silver nitrate were pipetted into a 96-well UV-Star UV transparent plate (Greiner BioOne, Frickenhausen, Germany) Spectra were collected after 5 days using a Biotek Synergy HT plate reader over the range of 300-700 nm and compared to blank samples of silver nitrate only, or of the peptide only.
# Peptide stock solution was diluted to a final concentration of 5 mg/ml in double distilled water. Then metal salt (AgNO3) was added to the sample and the samples were analyzed by TEM or HR-SEM. AgNO3 concentration was determined according to the final catechol concentration in the peptide, with a constant ratio of [AgNO3]/[Catechol]=0.0723.
# Silver deposition was done by preparing 15 mM peptide solutions and removing residual peptide monomers. This was done by centrifugation at 12,000 RPM for 15 min, discarding the supernatant and resuspention in ultra-pure water. This procedure was repeated once more. Samples for electron microscopy were taken as control and the solution was centrifuged at 12,000 RPM for 15 min and resuspended in an aqueous solution of 2.17 mM AgNO3 for 15 min Finally, the solution was centrifuged at 9000 RPM for 10 min and resuspended in water. Samples for electron microscopy were taken again.
# [4] = Thermal perturbation of assemblies (temperature-dependent CD, FTIR, TEM); format: physicochemical; conditions: 0.15 mM in water, stepwise 18° C. to 90° C. and back
# Procedure: CD spectra were collected as described above except that the spectra were obtained throughout temperature variation done in a stepwise fashion up and then down. […] (in the following steps: 25° C., 37° C., 50° C., 70° C., 90° C., 70° C., 50° C., 37° C., 25° C.). The sample was allowed to equilibrate for 10 min and the temperature was monitored by a thermocouple in the cuvette holder block. At the end of the measurments, the cuvette content was sampled for TEM and FTIR analysis as described above. As control, TEM and FTIR samples were taken from an aliquot of the same solution which was not subjected to temperature variations.
# [5] = Rheological measurements of in situ-formed hydrogel; format: physicochemical; conditions: 5 mg/mL
# Procedure: Rheological measurements for in situ-formed Fmoc-DOPA-DOPA hydrogel were performed using an AR-G2 rheometer (TA Instruments, New Castle, Del., USA). Time-sweep oscillatory tests in 20 mm parallel plate geometry were conducted at 0.7% strain and 1 Hz frequency on 200 μL of fresh solution (resulting in a gap size of about 0.6 mm), 1 min after its preparation. In order to determine the linear viscoelastic region oscillatory strain (0.01-100%) and frequency sweep (0.01-100 Hz) tests were conducted 45 min after diluting the stock solution with Milli-Q water. All rheology tests were done in triplicates and averaged.
molecule,measurement,setting,value
O=C(N[C@@H](Cc1ccc(O)c(O)c1)C(=O)O)OCC1c2ccccc2-c2ccccc21 [Fmoc-DOPA],mean adhesion force from force map histogram,"[1]; 1 mg/ml in 1% ethanol, one day of assembly",31±10.6 nN
Fmoc-DOPA-DOPA-Lys,adhesion force (force map),[1]; 1.25 wt% (12.5 mg/mL) prepared in 12.5% DMSO and water,> 300 nN
same,adhesion force (force map),[1]; 1.25 wt% (12.5 mg/mL) prepared in 12.5% ethanol and water,more than 214 nN
same,macroscopic adhesive properties,[2],capable of gluing together two glass slides
D[Dopa]NK[Dopa],reduction of ionic silver / silver deposition on assemblies,[3],possess the ability to reduce ionic silver
same,stability of the ultrastructure to elevated temperature,[4],ultrastructure is impaired by elevated temperatures
Fmoc-DOPA-DOPA,mean adhesion force from force map histogram,[1]; 5 mg/ml in 5% ethanol,36±11 nN
same,storage modulus at 25° C. or 37° C. relative to hydrogels formed at 4° C.,[5],approximately 40 fold
same,storage modulus (G′) versus loss modulus (G″) in the linear region,[5]; 25° C.,more than one order of magnitude larger than the loss modulus
same,reduction of ionic silver / silver deposition on assemblies,[3],seamless coating of the peptide assemblies was clearly observed
"3,4-dihydroxyphenyl-L-alanine-(3,4-dihydroxyphenyl-L-alanine) [DOPA-DOPA]",reduction of ionic silver / silver deposition on assemblies,[3],formation of silver particles
